For the assay, the target named is T1, β-catenin (Homo sapiens, UniProt P35222).
T1 sequence (P35222 1-781): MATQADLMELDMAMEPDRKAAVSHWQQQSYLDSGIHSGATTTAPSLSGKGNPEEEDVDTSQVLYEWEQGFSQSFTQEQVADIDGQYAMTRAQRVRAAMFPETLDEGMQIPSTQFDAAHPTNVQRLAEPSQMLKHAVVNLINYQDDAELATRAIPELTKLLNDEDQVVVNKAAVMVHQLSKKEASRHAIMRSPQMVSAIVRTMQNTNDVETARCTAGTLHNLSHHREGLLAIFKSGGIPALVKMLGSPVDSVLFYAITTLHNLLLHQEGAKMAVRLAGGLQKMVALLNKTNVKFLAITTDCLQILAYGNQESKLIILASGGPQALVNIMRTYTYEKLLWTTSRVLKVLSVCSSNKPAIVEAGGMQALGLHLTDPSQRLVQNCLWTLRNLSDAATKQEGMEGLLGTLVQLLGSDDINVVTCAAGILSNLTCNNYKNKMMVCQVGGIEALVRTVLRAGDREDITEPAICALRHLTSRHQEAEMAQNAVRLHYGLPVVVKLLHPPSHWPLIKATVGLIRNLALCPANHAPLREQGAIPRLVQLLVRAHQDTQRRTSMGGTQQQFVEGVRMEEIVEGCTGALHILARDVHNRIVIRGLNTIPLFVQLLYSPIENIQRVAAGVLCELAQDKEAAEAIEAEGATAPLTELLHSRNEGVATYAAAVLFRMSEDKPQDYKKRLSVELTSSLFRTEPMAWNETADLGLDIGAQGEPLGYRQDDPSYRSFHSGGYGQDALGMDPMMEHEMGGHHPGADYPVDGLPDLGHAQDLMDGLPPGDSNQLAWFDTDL
The assay is described as follows: KD50 measurement using competitive fluorescence polarization (FP) with labelled TCF4. In kind it is binding. Conditions: fluorescence polarization, β-catenin; for Kd: read-out: β-Cat FP KD. A digest of the protocol: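 Labelled TCF4 (5 nM) mixed with 100 nM β-catenin at room temperature; inhibitor added as serial dilutions from 10 nM to 30 uM. Polarization read at excitation 470 nm/emission 520 nm; binding displacement lowers polarization. Three independent runs.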

Experimental findings from US12441768B2, “Compositions and methods for treating endometriosis” (EndoMet Biosciences, Inc., priority 2018, dated 2025) are described below.

Where a SMILES comes first, the peptide text is derived from it.

Consider `CC[C@H](C)[C@@H]1NC(=O)[C@@H](NC(=O)[C@H](CCC(N)=O)NC(=O)[C@H](C)N(C)C(=O)[C@H](Cc2c[nH]c3ccccc23)NC(=O)CCNC(C)=O)CCCCNC(=O)CC[C@@H](C(=O)N[C@@H](Cc2c[nH]cn2)C(=O)N[C@H](C(=O)N[C@@H](CCC(N)=O)C(=O)N[C@@H](CCCNC(=N)N)C(=O)N[C@H](C(=O)N[C@@H](Cc2c[nH]c3ccccc23)C(=O)NCC(N)=O)C(C)C)C2CCCCC2)NC(=O)[C@H](CC(=O)O)NC(=O)[C@H](CC(C)C)NC1=O` [compound 419] (HELM PEPTIDE1{[ac].[bAla].W.[meA].Q.K.I.L.D.E.H.[O=C([C@@H](N[*:1])C1CCCCC1)[*:2]].Q.R.V.W.G.[am]}$PEPTIDE1,PEPTIDE1,6:R3-10:R3$$$V2.0), for which the “β-Cat FP Hill slope” value stood at 0.7 and the Kd was less than 400 nM.
The like results for `CC(C)C[C@@H]1NC(=O)[C@H](C2CCCCC2)NC(=O)[C@@H](NC(=O)[C@H](CCC(N)=O)NC(=O)[C@H](C)N(C)C(=O)[C@@H](N)Cc2c[nH]c3ccccc23)CCCCNC(=O)CC[C@@H](C(=O)N[C@@H](Cc2c[nH]cn2)C(=O)N[C@H](C(=O)N[C@@H](CCC(N)=O)C(=O)N[C@@H](CCCNC(=N)N)C(=O)N[C@H](C(=O)N[C@@H](Cc2c[nH]c3ccccc23)C(=O)NCC(N)=O)C(C)C)C(C)C)NC(=O)[C@H](CC(=O)O)NC1=O` [compound 420] (HELM PEPTIDE1{W.[meA].Q.K.[O=C([C@@H](N[*:1])C1CCCCC1)[*:2]].L.D.E.H.V.Q.R.V.W.G.[am]}$PEPTIDE1,PEPTIDE1,4:R3-8:R3$$$V2.0) were, in that order, 0.7 and 400 to 1000 nM.
Turning to `CC(=O)N[C@@H](Cc1c[nH]c2ccccc12)C(=O)N(C)[C@@H](C)C(=O)N[C@@H](CCC(N)=O)C(=O)N[C@H]1CCCCNC(=O)CC[C@@H](C(=O)N[C@@H](Cc2c[nH]cn2)C(=O)N[C@H](C(=O)N[C@@H](CCC(N)=O)C(=O)N[C@@H](CCCNC(=N)N)C(=O)N[C@H](C(=O)N[C@@H](Cc2c[nH]c3ccccc23)C(=O)NCC(N)=O)C(C)C)C(C)C)NC(=O)[C@H](CC(=O)O)NC(=O)[C@H](CC(C)C)NC(=O)[C@H](C2CCCCC2)NC1=O` [compound 421] (HELM PEPTIDE1{[ac].W.[meA].Q.K.[O=C([C@@H](N[*:1])C1CCCCC1)[*:2]].L.D.E.H.V.Q.R.V.W.G.[am]}$PEPTIDE1,PEPTIDE1,5:R3-9:R3$$$V2.0), the “β-Cat FP Hill slope” value came out at 0.7 and the Kd is less than 400 nM.
As for `CCCCCCCCC(=O)N[C@@H](Cc1c[nH]c2ccccc12)C(=O)N(C)[C@@H](C)C(=O)N[C@@H](CCC(N)=O)C(=O)N[C@H]1CCCCNC(=O)CC[C@@H](C(=O)N[C@@H](Cc2c[nH]cn2)C(=O)N[C@H](C(=O)N[C@@H](CCC(N)=O)C(=O)N[C@@H](CCCNC(=N)N)C(=O)N[C@H](C(=O)N[C@@H](Cc2c[nH]c3ccccc23)C(=O)NCC(N)=O)C(C)C)C(C)C)NC(=O)[C@H](CC(=O)O)NC(=O)[C@H](CC(C)C)NC(=O)[C@H](C2CCCCC2)NC1=O` [compound 422] (HELM PEPTIDE1{[CCCCCCCCC(=O)[*:2]].W.[meA].Q.K.[O=C([C@@H](N[*:1])C1CCCCC1)[*:2]].L.D.E.H.V.Q.R.V.W.G.[am]}$PEPTIDE1,PEPTIDE1,5:R3-9:R3$$$V2.0), the Kd fell in the range of 400 to 1000 nM.
For the molecule `CC[C@H](C)[C@@H]1NC(=O)[C@@H](NC(=O)[C@H](CCC(N)=O)NC(=O)[C@H](C)N(C)C(=O)[C@@H](N)Cc2c[nH]c3ccccc23)CCCNC(=O)CC[C@@H](C(=O)N[C@@H](Cc2c[nH]cn2)C(=O)N[C@H](C(=O)N[C@@H](CCC(N)=O)C(=O)N[C@@H](CCCNC(=N)N)C(=O)N[C@H](C(=O)N[C@@H](Cc2c[nH]c3ccccc23)C(=O)NCC(N)=O)C(C)C)C2CCCCC2)NC(=O)[C@H](CC(=O)O)NC(=O)[C@H](CC(C)C)NC1=O` [compound 423] (HELM PEPTIDE1{W.[meA].Q.[Orn].I.L.D.E.H.[O=C([C@@H](N[*:1])C1CCCCC1)[*:2]].Q.R.V.W.G.[am]}$PEPTIDE1,PEPTIDE1,4:R3-8:R3$$$V2.0), the “β-Cat FP Hill slope” value stood at 0.7 and the Kd was 400 to 1000 nM.
Taken in the same sequence, the figures for `CC[C@H](C)[C@@H]1NC(=O)[C@@H](NC(=O)[C@H](CCC(N)=O)NC(=O)[C@H](C)N(C)C(=O)[C@H](Cc2c[nH]c3ccccc23)NC(C)=O)CCCNC(=O)CC[C@@H](C(=O)N[C@@H](Cc2c[nH]cn2)C(=O)N[C@H](C(=O)N[C@@H](CCC(N)=O)C(=O)N[C@@H](CCCNC(=N)N)C(=O)N[C@H](C(=O)N[C@@H](Cc2c[nH]c3ccccc23)C(=O)NCC(N)=O)C(C)C)C2CCCCC2)NC(=O)[C@H](CC(=O)O)NC(=O)[C@H](CC(C)C)NC1=O` [compound 424] (HELM PEPTIDE1{[ac].W.[meA].Q.[Orn].I.L.D.E.H.[O=C([C@@H](N[*:1])C1CCCCC1)[*:2]].Q.R.V.W.G.[am]}$PEPTIDE1,PEPTIDE1,5:R3-9:R3$$$V2.0) were 0.7 and less than 400 nM.
Take `CCCCCCCCC(=O)N[C@@H](Cc1c[nH]c2ccccc12)C(=O)N(C)[C@@H](C)C(=O)N[C@@H](CCC(N)=O)C(=O)N[C@H]1CCCNC(=O)CC[C@@H](C(=O)N[C@@H](Cc2c[nH]cn2)C(=O)N[C@H](C(=O)N[C@@H](CCC(N)=O)C(=O)N[C@@H](CCCNC(=N)N)C(=O)N[C@H](C(=O)N[C@@H](Cc2c[nH]c3ccccc23)C(=O)NCC(N)=O)C(C)C)C2CCCCC2)NC(=O)[C@H](CC(=O)O)NC(=O)[C@H](CC(C)C)NC(=O)[C@H]([C@@H](C)CC)NC1=O` [compound 425] (HELM PEPTIDE1{[CCCCCCCCC(=O)[*:2]].W.[meA].Q.[Orn].I.L.D.E.H.[O=C([C@@H](N[*:1])C1CCCCC1)[*:2]].Q.R.V.W.G.[am]}$PEPTIDE1,PEPTIDE1,5:R3-9:R3$$$V2.0): the Kd was less than 400 nM.
Turning to `CC[C@H](C)[C@@H]1NC(=O)[C@@H](NC(=O)[C@H](CCC(N)=O)NC(=O)[C@H](C)N(C)C(=O)[C@H](Cc2c[nH]c3ccccc23)NC(C)=O)CCC(=O)NCCCC[C@@H](C(=O)N[C@@H](Cc2c[nH]cn2)C(=O)N[C@H](C(=O)N[C@@H](CCC(N)=O)C(=O)N[C@@H](CCCNC(=N)N)C(=O)N[C@H](C(=O)N[C@@H](Cc2c[nH]c3ccccc23)C(=O)NCC(N)=O)C(C)C)C2CCCCC2)NC(=O)[C@H](CC(=O)O)NC(=O)[C@H](CC(C)C)NC1=O` [compound 426] (HELM PEPTIDE1{[ac].W.[meA].Q.E.I.L.D.K.H.[O=C([C@@H](N[*:1])C1CCCCC1)[*:2]].Q.R.V.W.G.[am]}$PEPTIDE1,PEPTIDE1,5:R3-9:R3$$$V2.0), the “β-Cat FP Hill slope” value stood at 0.91 and the Kd was less than 400 nM.
Consider `CCCCCCCCC(=O)N[C@@H](Cc1c[nH]c2ccccc12)C(=O)N(C)[C@@H](C)C(=O)N[C@@H](CCC(N)=O)C(=O)N[C@H]1CCC(=O)NCCCC[C@@H](C(=O)N[C@@H](Cc2c[nH]cn2)C(=O)N[C@H](C(=O)N[C@@H](CCC(N)=O)C(=O)N[C@@H](CCCNC(=N)N)C(=O)N[C@H](C(=O)N[C@@H](Cc2c[nH]c3ccccc23)C(=O)NCC(N)=O)C(C)C)C2CCCCC2)NC(=O)[C@H](CC(=O)O)NC(=O)[C@H](CC(C)C)NC(=O)[C@H]([C@@H](C)CC)NC1=O` [compound 427] (HELM PEPTIDE1{[CCCCCCCCC(=O)[*:2]].W.[meA].Q.E.I.L.D.K.H.[O=C([C@@H](N[*:1])C1CCCCC1)[*:2]].Q.R.V.W.G.[am]}$PEPTIDE1,PEPTIDE1,5:R3-9:R3$$$V2.0), for which the dissociation constant (Kd) was less than 400 nM.
Turning to `CC[C@H](C)[C@@H]1NC(=O)[C@@H](NC(=O)[C@H](CCC(N)=O)NC(=O)[C@@H]2CCCN2C(=O)[C@H](Cc2c[nH]c3ccccc23)NC(=O)[C@H](CCCNC(=N)N)NC(=O)[C@H](CCCNC(=N)N)NC(C)=O)CCCCNC(=O)CC[C@@H](C(=O)N[C@@H](Cc2c[nH]cn2)C(=O)N[C@H](C(=O)N[C@@H](CCCNC(=N)N)C(=O)N[C@@H](CCCNC(=N)N)C(=O)N[C@H](C(=O)N[C@@H](Cc2c[nH]c3ccccc23)C(=O)N[C@@H](CCCNC(=N)N)C(N)=O)C(C)C)C(C)C)NC(=O)[C@H](CC(=O)O)NC(=O)[C@H](CC(C)C)NC1=O` [compound 429] (HELM PEPTIDE1{[ac].R.R.W.P.Q.K.I.L.D.E.H.V.R.R.V.W.R.[am]}$PEPTIDE1,PEPTIDE1,7:R3-11:R3$$$V2.0), the “β-Cat FP Hill slope” value is listed as 0.7 and the dissociation constant Kd fell in the range of 400 to 1000 nM.
In the case of `CCCCCCCCC(=O)N[C@@H](Cc1c[nH]c2ccccc12)C(=O)N(C)[C@@H](C)C(=O)N[C@@H](CCC(N)=O)C(=O)N[C@H]1CCCCNC(=O)C[C@@H](C(=O)N[C@@H](Cc2c[nH]cn2)C(=O)N[C@H](C(=O)N[C@@H](CCC(N)=O)C(=O)N[C@@H](CCCNC(=N)N)C(=O)N[C@H](C(=O)N[C@@H](Cc2c[nH]c3ccccc23)C(=O)NCC(N)=O)C(C)C)C2CCCCC2)NC(=O)[C@H](CC(=O)O)NC(=O)[C@H](CC(C)C)NC(=O)[C@H]([C@@H](C)CC)NC1=O` [compound 431] (HELM PEPTIDE1{[CCCCCCCCC(=O)[*:2]].W.[meA].Q.K.I.L.D.D.H.[O=C([C@@H](N[*:1])C1CCCCC1)[*:2]].Q.R.V.W.G.[am]}$PEPTIDE1,PEPTIDE1,5:R3-9:R3$$$V2.0), the dissociation constant Kd is less than 400 nM.
